Test results taken from patent publication US10000787B2, “Methods for diagnosing bacterial infections” (STC.UNM, priority 2012, dated 2018).

Target: T1, pHPA decarboxylase (Clostridioides difficile, UniProt Q84F16)
T1 construct: Isolated cell free extract of C. difficile; endogenous in cells; host or cells: C. difficile cell-free extract
Assay: estimated ^13CO2 production from labeled substrate by pHPA decarboxylase in a C. difficile infection
Assay type: in vivo
Settings: infection in which 10 mg of bacterial protein is present; worked out from 12 mU per mg of protein pHPA decarboxylase in isolated cell free extract of C. difficile
Experimental: The compositions of the invention can also be administered intravenously. Isolated cell free extract of C. difficile contains 12 mU per mg of protein of the activating enzyme pHPA decarboxylase. This correlates to the production of 2.7 mL of ^13CO2 per minute in an infection in which 10 mg of bacterial protein is present when a patient is treated with a compound of the invention, for example, ^13C-hydroxyphenylacetate. Oftentimes, a patient is infected with much more than 10 mg of bacterial protein with a C. difficile infection.
Assuming 15 liters of air is respired per minute, and with 4% exhaled CO2, a patient will exhale about 600 ml of CO2 per minute, of which approximately 6.6 mLs will be ^13CO2. […] Thus, efficient delivery of isotopically-labeled compound is important. Preferably, an intravenous dosage form is administered to the patient, leading to rapid increases in intestinal levels, and allowing breath testing from 10 to 120 minutes after dosage. Such dosage forms are sterile and particle-free. Preparation methods for such dosage forms are known in the art.

T1 sequence (Q84F15 whole entry): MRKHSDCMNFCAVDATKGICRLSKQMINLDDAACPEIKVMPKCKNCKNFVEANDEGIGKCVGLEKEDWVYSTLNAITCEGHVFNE
T1 sequence (Q84F16 whole entry): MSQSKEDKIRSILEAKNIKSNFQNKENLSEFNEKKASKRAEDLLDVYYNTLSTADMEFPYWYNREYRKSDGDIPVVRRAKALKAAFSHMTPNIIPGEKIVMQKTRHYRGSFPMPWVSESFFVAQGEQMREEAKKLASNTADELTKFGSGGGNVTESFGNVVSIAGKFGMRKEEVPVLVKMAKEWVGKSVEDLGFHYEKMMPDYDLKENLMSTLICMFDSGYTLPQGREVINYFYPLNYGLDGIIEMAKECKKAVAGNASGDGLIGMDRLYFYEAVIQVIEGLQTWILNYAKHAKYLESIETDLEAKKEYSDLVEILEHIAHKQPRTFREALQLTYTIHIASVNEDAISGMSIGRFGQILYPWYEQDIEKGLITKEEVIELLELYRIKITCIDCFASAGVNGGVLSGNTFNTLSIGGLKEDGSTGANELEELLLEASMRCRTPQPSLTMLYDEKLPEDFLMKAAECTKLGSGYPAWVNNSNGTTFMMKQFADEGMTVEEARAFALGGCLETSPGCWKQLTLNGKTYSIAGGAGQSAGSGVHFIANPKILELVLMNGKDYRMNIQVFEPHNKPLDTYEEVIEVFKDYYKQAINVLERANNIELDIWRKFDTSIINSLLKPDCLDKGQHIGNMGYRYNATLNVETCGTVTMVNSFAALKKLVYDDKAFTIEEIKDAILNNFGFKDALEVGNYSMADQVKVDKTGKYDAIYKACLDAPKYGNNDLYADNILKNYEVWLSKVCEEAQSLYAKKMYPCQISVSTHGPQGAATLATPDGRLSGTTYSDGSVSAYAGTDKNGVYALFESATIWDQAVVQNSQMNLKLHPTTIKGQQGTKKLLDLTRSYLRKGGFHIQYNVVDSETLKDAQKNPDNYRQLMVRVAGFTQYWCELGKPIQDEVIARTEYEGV

For ^13C-hydroxyphenylacetate, the “production of ^13CO2” value was 2.7 mL per minute.
